From paper PMC12030706, “Novel ^177Lu-Labeled [Thz^14]Bombesin(6–14) Derivatives with Low Pancreas Accumulation for Targeting Gastrin-Releasing Peptide Receptor-Expressing Cancer” (Pharmaceuticals, 2025)
Numbered stars: 1 amine (or outer) side, 2 acyl side, 3 side chain; on linkers, the order of the positions; unused ones are H or OH. Square brackets hold non-standard residues; d marks the D form. Peptide text beside a SMILES is read from it. * marks the point of attachment. DOTA = O=C(O)CN1CCN(CC(=O)O)CCN(CC(=O)*)CCN(CC(=O)O)CC1; NMeH = CN[C@@H](Cc1c[nH]cn1)C(=O)O; X1 = O=C(CN1CCC(N[*:1])CC1)[*:2]; Tle = CC(C)(C)[C@H](N)C(=O)O; Thz = O=C(O)[C@@H]1CSCN1

How the values were obtained:
[1] = Ex vivo biodistribution in PC-3 tumor-bearing mice; settings: mouse; for tissue uptake at 4 h: 4 h post-injection; for tissue uptake at 24 h: 24 h post-injection; for tissue uptake at 72 h: 72 h post-injection; for tissue uptake at 120 h: 120 h post-injection
Method: (§1) SPECT/CT imaging experiments were performed using an MILabs (Houten, The Netherlands) U-SPECT-II/CT scanner with a custom-made ultra-high-sensitivity big mouse collimator (2 mm pinhole size) following previously reported procedures. […] Male NOD.Cg-Rag1^tm1Mom Il2rg^tm1Wjl/SzJ (NRG) mice were used in these experiments because of their immunodeficient characteristics and excellent radiation tolerance. Mice were anaesthetized and subcutaneously implanted with 5 × 10^6 PC-3 prostate cancer cells (100 µL; 1:1 PBS/Matrigel) behind the left shoulder. SPECT/CT imaging and biodistribution studies were performed once the tumors reached a diameter of 5–8 mm, typically after approximately 4 weeks of growth.
(§2) For ex vivo biodistribution studies, the mice were injected with ~2–6 MBq of the radioligand. […] Blocking study was conducted at 1 h post-injection via co-injection of the radioligand with 100 μg of [D-Phe^6,Leu-NHEt^13,des-Met^14]Bombesin(6–14). Organs/tissues of interested were collected, weighed, and measured using an automatic gamma counter.

PC-3 tumor-bearing mice = experiment: Ex vivo biodistribution in PC-3 tumor-bearing mice
Method: as §1, §2

[2] = LogD7.4 measurement, shake flask method; format: physicochemical; settings: n-octanol/DPBS pH 7.4, n = 3
Method: The logD7.4 values of all the ^177Lu-labeled GRPR-targeted ligands were measured using the shake flask method as previously reported. An aliquot (~2 MBq) of the radiolabeled product was added to a mixture of n-octanol (3 mL) and DPBS (3 mL, pH 7.4), followed by 1 min vortexing and 15 min centrifugation at 5000 rpm. Samples of the n-octanol (1 mL) and buffer (1 mL) layers were collected, and the activity was counted using a gamma counter. The logD7.4 values were calculated using the following equation: logD7.4=log10[countsn−octanolphase/countsbutterphase]

[3] = large intestine, Uptake in large intestine
[4] = small intestine, Uptake in small intestine
[5] = 1 h blocked (co-injected with 100 µg [D-Phe6,Leu-NHEt13,des-Met14]Bombesin(6-14))
[6] = 1 h post-injection, 100 µg [D-Phe6,Leu-NHEt13,des-Met14]Bombesin(6–14)

SMILES: CC(C)C[C@H](NC(=O)[C@H](Cc1cnc[nH]1)N(C)C(=O)CNC(=O)[C@@H](NC(=O)[C@H](C)NC(=O)[C@H](Cc1c[nH]c2ccccc12)NC(=O)[C@H](Cc1c[nH]cn1)NC(=O)[C@@H](Cc1ccccc1)NC(=O)CN1CCC(NC(=O)CN2CCN(CC(=O)O)CCN(CC(=O)O)CCN(CC(=O)O)CC2)CC1)C(C)(C)C)C(=O)N1CSC[C@H]1C(N)=O [[^177Lu]Lu-LW01142, metal not drawn] ({DOTA}-[X1][dF]HWA[Tle]G[NMeH]L[Thz]-NH2)
- tissue uptake at 1 h ([1]; large intestine, 100 ug, Uptake in large intestine, 1 h blocked (co-injected with 100 µg [D-Phe6,Leu-NHEt13,des-Met14]Bombesin(6-14))): 0.31 ± 0.08 %ID/g
- tissue uptake at 4 h [1, 3]: 0.81 ± 0.21 %ID/g
- tissue uptake at 24 h [1, 3]: 0.3 ± 0.12 %ID/g
- tissue uptake at 72 h [1, 3]: 0.13 ± 0.05 %ID/g
- tissue uptake at 120 h [1, 3]: 0.07 ± 0.04 %ID/g
- tissue uptake at 1 h ([1]; liver, 100 ug, Uptake in liver, 1 h blocked (co-injected with 100 µg [D-Phe6,Leu-NHEt13,des-Met14]Bombesin(6-14))): 0.57 ± 0.15 %ID/g
- tissue uptake at 4 h ([1]; liver, Uptake in liver): 0.33 ± 0.05 %ID/g
- tissue uptake at 24 h ([1]; liver, Uptake in liver): 0.28 ± 0.07 %ID/g
- tissue uptake at 120 h ([1]; liver, Uptake in liver): 0.08 ± 0.02 %ID/g
- tissue uptake at 1 h ([1]; lungs, Uptake in lungs, 1 h post-injection): 1.53 ± 0.19 %ID/g
- tissue uptake at 4 h ([1]; lungs, Uptake in lungs): 0.57 ± 0.21 %ID/g
- tissue uptake at 24 h ([1]; lungs, Uptake in lungs): 0.16 ± 0.08 %ID/g
- tissue uptake at 72 h ([1]; lungs, Uptake in lungs): 0.03 ± 0.01 %ID/g
- tissue uptake at 120 h ([1]; lungs, Uptake in lungs): 0.03 ± 0.01 %ID/g
- tissue uptake at 1 h ([1]; muscle, 100 ug, Uptake in muscle, 1 h blocked (co-injected with 100 µg [D-Phe6,Leu-NHEt13,des-Met14]Bombesin(6-14))): 0.23 ± 0.11 %ID/g
- tissue uptake at 1 h ([1]; muscle, Uptake in muscle, 1 h post-injection): 0.22 ± 0.04 %ID/g
- tissue uptake at 4 h ([1]; muscle, Uptake in muscle): 0.03 ± 0.01 %ID/g
- tissue uptake at 24 h ([1]; muscle, Uptake in muscle): 0.01 %ID/g
- tissue uptake at 72 h ([1]; muscle, Uptake in muscle): 0.01 %ID/g
- tissue uptake at 1 h ([1]; pancreas, 100 ug, Uptake in pancreas, 1 h blocked (co-injected with 100 µg [D-Phe6,Leu-NHEt13,des-Met14]Bombesin(6-14))): 1.88 ± 0.42 %ID/g
- tissue uptake at 4 h ([1]; pancreas, Uptake in pancreas): 1.57 ± 0.28 %ID/g
- tissue uptake at 24 h ([1]; pancreas, Uptake in pancreas): ~1 %ID/g
- tissue uptake at 72 h ([1]; pancreas, Uptake in pancreas): 0.68 ± 0.1 %ID/g
- tissue uptake at 120 h ([1]; pancreas, Uptake in pancreas): 0.48 ± 0.08 %ID/g
- tissue uptake at 1 h ([1]; small intestine, 100 ug, Uptake in small intestine, 1 h blocked (co-injected with 100 µg [D-Phe6,Leu-NHEt13,des-Met14]Bombesin(6-14))): 0.54 ± 0.1 %ID/g
- tissue uptake at 1 h ([1]; small intestine, Uptake in small intestine, 1 h post-injection): 1.32 ± 0.42 %ID/g
- tissue uptake at 4 h [1, 4]: 0.29 ± 0.08 %ID/g
- tissue uptake at 24 h [1, 4]: 0.14 ± 0.03 %ID/g
- tissue uptake at 72 h [1, 4]: 0.05 ± 0.01 %ID/g
- tissue uptake at 120 h [1, 4]: 0.02 ± 0.02 %ID/g
- tissue uptake at 1 h ([1]; spleen, 100 ug, Uptake in spleen, 1 h blocked (co-injected with 100 µg [D-Phe6,Leu-NHEt13,des-Met14]Bombesin(6-14))): 0.4 ± 0.04 %ID/g
- tissue uptake at 24 h ([1]; spleen, Uptake in spleen): 0.14 ± 0.05 %ID/g
- tissue uptake at 72 h ([1]; spleen, Uptake in spleen): 0.09 ± 0.02 %ID/g
- tissue uptake at 120 h ([1]; spleen, Uptake in spleen): 0.09 ± 0.02 %ID/g
- tissue uptake at 1 h ([1]; stomach, Uptake in stomach, 1 h post-injection): 0.6 ± 0.24 %ID/g
- tissue uptake at 4 h ([1]; stomach, Uptake in stomach): 0.11 ± 0.04 %ID/g
- tissue uptake at 24 h ([1]; stomach, Uptake in stomach): 0.16 ± 0.07 %ID/g
- tissue uptake at 120 h ([1]; stomach, Uptake in stomach): 0.02 ± 0.01 %ID/g
- tissue uptake at 1 h ([1]; testes, 100 ug, Uptake in testes, 1 h blocked (co-injected with 100 µg [D-Phe6,Leu-NHEt13,des-Met14]Bombesin(6-14))): 0.48 ± 0.16 %ID/g
- tissue uptake at 4 h ([1]; testes, Uptake in testes): 0.05 ± 0.01 %ID/g
- tissue uptake at 24 h ([1]; testes, Uptake in testes): 0.03 ± 0.01 %ID/g
- tissue uptake at 72 h ([1]; testes, Uptake in testes): 0.02 %ID/g
- tissue uptake at 120 h ([1]; testes, Uptake in testes): 0.01 %ID/g
- Uptake in lungs (PC-3 tumor-bearing mice; [5]): 1.06 ± 0.27 %ID/g
- Uptake in stomach (PC-3 tumor-bearing mice; [5]): 0.17 ± 0.06 %ID/g
- Uptake in bone (PC-3 tumor-bearing mice; 1 h post-injection): 0.15 ± 0.03 %ID/g
- Uptake in kidneys (PC-3 tumor-bearing mice; 1 h post-injection): 6.86 ± 0.81 %ID/g
- Uptake in large intestine (PC-3 tumor-bearing mice; 1 h post-injection): 0.76 ± 0.16 %ID/g
- Uptake in liver (PC-3 tumor-bearing mice; 1 h post-injection): 0.71 ± 0.08 %ID/g
- Uptake in pancreas (PC-3 tumor-bearing mice; 1 h post-injection): 4.45 ± 0.83 %ID/g
- Uptake in spleen (PC-3 tumor-bearing mice; 1 h post-injection): 0.47 ± 0.07 %ID/g
- Uptake in testes (PC-3 tumor-bearing mice; 1 h post-injection): 0.32 ± 0.18 %ID/g
- reduction of average pancreas uptake by co-injection of blocker (PC-3 tumor-bearing mice; [6]): 58%
- reduction of average tumor uptake by co-injection of blocker (PC-3 tumor-bearing mice; [6]): 62%
- Uptake in heart (PC-3 tumor-bearing mice; 4 h post-injection): 0.06 ± 0.01 %ID/g
- Uptake in kidneys (PC-3 tumor-bearing mice; 4 h post-injection): 5.51 ± 0.54 %ID/g
- Uptake in spleen (PC-3 tumor-bearing mice; 4 h post-injection): 0.17 ± 0.04 %ID/g
- Uptake in pancreas (PC-3 tumor-bearing mice; 24 h post-injection): 1.06 ± 0.26 %ID/g
- Uptake in liver (PC-3 tumor-bearing mice; 72 h post-injection): 0.12 ± 0.03 %ID/g
- Uptake in stomach (PC-3 tumor-bearing mice; 72 h post-injection): 0.10 ± 0.05 %ID/g
- Uptake in adrenal glands (PC-3 tumor-bearing mice; 120 h post-injection): 0.17 ± 0.09 %ID/g
- uptake in PC-3 tumor xenografts cleared within 24 h (PC-3 tumor-bearing mice; relative to 1 h uptake): 47%
- logD [2]: -2.28 ± 0.14
